Results: patent publication US20100099561A1, “HETEROBICYCLIC ALKYLTHIO-BRIDGED ISOXAZOLINES” (E.I. DU PONT DE NEMOURS AND COMPANY, priority 2008, published 2010)

Columns and labels:
Type in all cases: in vivo
[1] = system: giant foxtail (Setaria faberii); assay: Test B preemergence, giant foxtail; details: scale 0 to 100
Source text: (§1) Seeds of plant species selected from blackgrass (Alopecurus myosuroides), downy bromegrass (Bromus tectorum), green foxtail (Setaria viridis), Italian ryegrass (Lolium multiflorum), wheat (Triticum aestivum), wild oat (Avena fatua), catchweed bedstraw (Galium aparine), bermudagrass (Cynodon dactylon), Surinam grass (Brachiaria decumbens), cocklebur (Xanthium strumarium), corn (Zea mays), large crabgrass (Digitaria sanguinalis), woolly cupgrass (Eriochloa villosa), giant foxtail (Setaria faberii), goosegrass (Eleusine indica), johnsongrass (Sorghum halepense), kochia (Kochia scoparia), lambsquarters (Chenopodium album), morningglory (Ipomoea coccinea), nightshade (eastern black nightshade, Solanum ptycanthum), yellow nutsedge (Cyperus esculentus), pigweed (Amaranthus retroflexus), ragweed (common ragweed, Ambrosia elatior), soybean (Glycine max), sunflower (common oilseed sunflower, Helianthus annuus), Russian thistle (Salsola kali), and velvetleaf (Abutilon theophrasti) were planted into a blend of loam soil and sand and treated preemergence with test compounds formulated in a non-phytotoxic solvent mixture which included a surfactant. Treated plants and controls were maintained in a greenhouse for 13 to 15 days, after which time all species were compared to controls and visually evaluated. Plant response ratings, summarized in Table B, are based on a scale of 0 to 100 where 0 is no effect and 100 is complete control. A dash (-) response means no test result.

corn (Zea mays) [2] = assay: Test B preemergence, corn; details: scale 0 to 100
Source text: as §1

[3] = system: giant foxtail (Setaria faberi); assay: Test A postemergence, giant foxtail; details: 0 to 100 scale (0 no effect, 100 complete control)
In short: (§2)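 Species planted together in a loam soil and sand blend received compound either as a preemergence soil spray or as a postemergence treatment when 2–10 cm tall with one to two leaves. About ten days later, injury was visually rated relative to untreated plants on a 0–100 scale.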

corn (Zea mays) [4] = assay: Test A postemergence, corn; details: 0 to 100 scale (0 no effect, 100 complete control)
In short: as §2

[5] = system: johnsongrass (Sorghum halepense); assay: Test B preemergence, johnsongrass; details: scale 0 to 100
Source text: as §1

[6] = system: barnyardgrass (Echinochloa crus-galli); assay: Test B flooded paddy test, barnyardgrass; details: Flood
In short: (§3)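 2-leaf plants; pots flooded 3 cm above soil; compound added to paddy water; depth maintained. Greenhouse 13–15 d. Visual rating vs controls, 0 (no effect) to 100 (complete control); dash = no result.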

[7] = system: giant foxtail (Setaria faberi); assay: Test A preemergence, giant foxtail; details: 0 to 100 scale (0 no effect, 100 complete control)
In short: as §2

[8] = system: sunflower (common oilseed sunflower, Helianthus annuus); assay: Test B preemergence, sunflower; details: Preemergence, scale 0 to 100
Source text: as §1

[9] = system: cocklebur (Xanthium strumarium); assay: Test B preemergence, cocklebur; details: scale 0 to 100
Source text: as §1

corn (Zea mays) [10] = assay: Test A preemergence, corn; details: 0 to 100 scale (0 no effect, 100 complete control)
In short: as §2

[11] = system: barnyardgrass (Echinochloa crus-galli); assay: Test A preemergence, barnyardgrass; details: 0 to 100 scale (0 no effect, 100 complete control)
In short: as §2

[12] = system: velvetleaf (Abutilon theophrasti); assay: Test A preemergence, velvetleaf; details: 0 to 100 scale (0 no effect, 100 complete control)
In short: as §2

[13] = system: pigweed (Amaranthus retroflexus); assay: Test A postemergence, pigweed; details: 0 to 100 scale (0 no effect, 100 complete control)
In short: as §2

[14] = system: ducksalad (Heteranthera limosa); assay: Test B flooded paddy test, ducksalad; details: Flood, scale 0 to 100
In short: as §3

[15] = system: green foxtail (Setaria viridis); assay: Test B preemergence, green foxtail; details: scale 0 to 100
Source text: as §1

[16] = system: goosegrass (Eleusine indica); assay: Test B preemergence, goosegrass; details: scale 0 to 100
Source text: as §1

[17] = system: large crabgrass (Digitaria sanguinalis); assay: Test A preemergence, large crabgrass; details: 0 to 100 scale (0 no effect, 100 complete control)
In short: as §2

[18] = system: velvetleaf (Abutilon theophrasti); assay: Test A postemergence, velvetleaf; details: 0 to 100 scale (0 no effect, 100 complete control)
In short: as §2

rice (Oryza sativa) = assay: Test B flooded paddy test, rice; details: Flood, scale 0 to 100
In short: as §3

[19] = system: umbrella sedge (Cyperus difformis); assay: Test B flooded paddy test, umbrella sedge; details: Flood, scale 0 to 100
In short: as §3

[20] = 250 g ai/ha, scale 0 to 100 (0 no effect, 100 complete control)

CC1(C)CC(S(=O)(=O)Cc2c(C(F)(F)F)nc3ccsn3c2=O)=NO1 [Compound 16]
98: Plant response rating, Foxtail, Giant ([1]; 125 g ai/ha) | Plant response rating, Foxtail, Green ([15]; 125 g ai/ha)
20: Plant response rating, Foxtail, Green ([15]; 31 g ai/ha)
30: Plant response rating, Velvetleaf ([18]; 125 g ai/ha)
60: Plant response rating, Velvetleaf ([12]; 500 g ai/ha) | Plant response rating, Velvetleaf ([18]; 500 g ai/ha)
50: Plant response rating, Barnyardgrass ([11]; 125 g ai/ha) | Plant response rating, Velvetleaf ([12]; 125 g ai/ha) | Plant response rating, Pigweed ([13]; 500 g ai/ha)
10: Plant response rating, Pigweed ([13]; 125 g ai/ha)
0: Plant response rating, Foxtail, Giant ([1]; 16 g ai/ha) | Plant response rating, Corn (corn (Zea mays) [2]; 16 g ai/ha) | Plant response rating, Corn (corn (Zea mays) [2]; 31 g ai/ha) | Plant response rating, Corn (corn (Zea mays) [2]; 62 g ai/ha) | Plant response rating, Corn (corn (Zea mays) [2]; 125 g ai/ha) | Plant response rating, Corn (corn (Zea mays) [4]; 125 g ai/ha) | Plant response rating, Corn (corn (Zea mays) [4]; 500 g ai/ha) | Plant response rating, Johnsongrass ([5]; 16 g ai/ha) | Plant response rating, Barnyardgrass ([6]; 62 g ai/ha, scale 0 to 100) | Plant response rating, Barnyardgrass [6, 20] | Plant response rating, Sunflower ([8]; 16 g ai/ha) | Plant response rating, Sunflower ([8]; 31 g ai/ha) | Plant response rating, Sunflower ([8]; 62 g ai/ha) | Plant response rating, Sunflower ([8]; 125 g ai/ha) | Plant response rating, Cocklebur ([9]; 16 g ai/ha) | Plant response rating, Cocklebur ([9]; 31 g ai/ha) | Plant response rating, Cocklebur ([9]; 62 g ai/ha) | Plant response rating, Cocklebur ([9]; 125 g ai/ha) | Plant response rating, Corn (corn (Zea mays) [10]; 125 g ai/ha) | Plant response rating, Corn (corn (Zea mays) [10]; 500 g ai/ha) | Plant response rating, Foxtail, Green ([15]; 16 g ai/ha) | Plant response rating, Rice (rice (Oryza sativa); 62 g ai/ha) | Plant response rating, Rice (rice (Oryza sativa); 250 g ai/ha) | Plant response rating, Sedge, Umbrella ([19]; 62 g ai/ha)
85: Plant response rating, Johnsongrass ([5]; 62 g ai/ha) | Plant response rating, Foxtail, Green ([15]; 62 g ai/ha) | Plant response rating, Goosegrass ([16]; 16 g ai/ha)
45: Plant response rating, Johnsongrass ([5]; 31 g ai/ha)
90: Plant response rating, Foxtail, Giant ([1]; 62 g ai/ha) | Plant response rating, Foxtail, Giant ([3]; 500 g ai/ha) | Plant response rating, Foxtail, Giant ([7]; 125 g ai/ha) | Plant response rating, Foxtail, Giant ([7]; 500 g ai/ha) | Plant response rating, Crabgrass, Large ([17]; 125 g ai/ha) | Plant response rating, Crabgrass, Large ([17]; 500 g ai/ha)
80: Plant response rating, Foxtail, Giant ([1]; 31 g ai/ha) | Plant response rating, Foxtail, Giant ([3]; 125 g ai/ha) | Plant response rating, Barnyardgrass ([11]; 500 g ai/ha)
95: Plant response rating, Johnsongrass ([5]; 125 g ai/ha) | Plant response rating, Goosegrass ([16]; 31 g ai/ha)
100: Plant response rating, Goosegrass ([16]; 62 g ai/ha) | Plant response rating, Goosegrass ([16]; 125 g ai/ha)
40: Plant response rating, Ducksalad ([14]; 62 g ai/ha) | Plant response rating, Ducksalad ([14]; 250 g ai/ha) | Plant response rating, Sedge, Umbrella ([19]; 250 g ai/ha)

CC1(C)CC(S(=O)(=O)Cc2c(C(F)(F)C(F)(F)F)nc3n(c2=O)CCC3)=NO1 [Compound 22]
100: Plant response rating, Foxtail, Giant ([1]; 125 g ai/ha) | Plant response rating, Foxtail, Giant ([7]; 500 g ai/ha) | Plant response rating, Foxtail, Green ([15]; 62 g ai/ha) | Plant response rating, Foxtail, Green ([15]; 125 g ai/ha) | Plant response rating, Goosegrass ([16]; 62 g ai/ha) | Plant response rating, Goosegrass ([16]; 125 g ai/ha) | Plant response rating, Crabgrass, Large ([17]; 500 g ai/ha)
70: Plant response rating, Foxtail, Giant ([3]; 125 g ai/ha) | Plant response rating, Foxtail, Green ([15]; 31 g ai/ha)
20: Plant response rating, Velvetleaf ([18]; 125 g ai/ha)
50: Plant response rating, Foxtail, Giant ([1]; 16 g ai/ha) | Plant response rating, Foxtail, Giant ([1]; 31 g ai/ha) | Plant response rating, Sunflower ([8]; 125 g ai/ha) | Plant response rating, Foxtail, Green ([15]; 16 g ai/ha)
80: Plant response rating, Foxtail, Giant ([3]; 500 g ai/ha) | Plant response rating, Barnyardgrass ([11]; 125 g ai/ha) | Plant response rating, Goosegrass ([16]; 31 g ai/ha)
40: Plant response rating, Pigweed ([13]; 500 g ai/ha)
60: Plant response rating, Velvetleaf ([18]; 500 g ai/ha)
90: Plant response rating, Foxtail, Giant ([1]; 62 g ai/ha) | Plant response rating, Foxtail, Giant ([7]; 125 g ai/ha) | Plant response rating, Barnyardgrass ([11]; 500 g ai/ha) | Plant response rating, Velvetleaf ([12]; 500 g ai/ha) | Plant response rating, Crabgrass, Large ([17]; 125 g ai/ha)
98: Plant response rating, Johnsongrass ([5]; 125 g ai/ha)
0: Plant response rating, Corn (corn (Zea mays) [2]; 16 g ai/ha) | Plant response rating, Corn (corn (Zea mays) [2]; 31 g ai/ha) | Plant response rating, Corn (corn (Zea mays) [2]; 62 g ai/ha) | Plant response rating, Corn (corn (Zea mays) [4]; 125 g ai/ha) | Plant response rating, Corn (corn (Zea mays) [4]; 500 g ai/ha) | Plant response rating, Johnsongrass ([5]; 16 g ai/ha) | Plant response rating, Barnyardgrass ([6]; 62 g ai/ha, scale 0 to 100) | Plant response rating, Barnyardgrass [6, 20] | Plant response rating, Sunflower ([8]; 16 g ai/ha) | Plant response rating, Sunflower ([8]; 31 g ai/ha) | Plant response rating, Sunflower ([8]; 62 g ai/ha) | Plant response rating, Cocklebur ([9]; 16 g ai/ha) | Plant response rating, Cocklebur ([9]; 31 g ai/ha) | Plant response rating, Cocklebur ([9]; 62 g ai/ha) | Plant response rating, Cocklebur ([9]; 125 g ai/ha) | Plant response rating, Corn (corn (Zea mays) [10]; 125 g ai/ha) | Plant response rating, Corn (corn (Zea mays) [10]; 500 g ai/ha) | Plant response rating, Pigweed ([13]; 125 g ai/ha) | Plant response rating, Ducksalad ([14]; 62 g ai/ha) | Plant response rating, Ducksalad ([14]; 250 g ai/ha) | Plant response rating, Rice (rice (Oryza sativa); 62 g ai/ha) | Plant response rating, Sedge, Umbrella ([19]; 62 g ai/ha) | Plant response rating, Sedge, Umbrella ([19]; 250 g ai/ha)
10: Plant response rating, Corn (corn (Zea mays) [2]; 125 g ai/ha) | Plant response rating, Johnsongrass ([5]; 31 g ai/ha) | Plant response rating, Rice (rice (Oryza sativa); 250 g ai/ha)
65: Plant response rating, Johnsongrass ([5]; 62 g ai/ha)
30: Plant response rating, Velvetleaf ([12]; 125 g ai/ha) | Plant response rating, Goosegrass ([16]; 16 g ai/ha)
